We go through 32 molecules from patent US20230075856A1, “CYCLIC SULFAMIDE COMPOUNDS FOR TREATMENT OF HBV” (Assembly Biosciences, Inc., priority 2018, published 2023).

Where only a bound is given, the exact number is not on record here.

The first experiment relates to HBV viral load production from HepAD38 cells. In words: Viral production from HepAD38 cells: viral load in supernatant by qPCR of the HBV core sequence. Particulars: 5 days incubation, qPCR of supernatant HBV DNA vs DMSO control, read-out: viral load lowering EC50 (Activity). It counts as cell-based. The method in brief: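 Viral load was measured by qPCR of the HBV core region in supernatant, quantified against DNA standards and compared with DMSO wells. Cells (50,000/well, tetracycline withdrawn, 2% FBS) received compound from 10 μM final for 5 days; EC50 from four-parameter nonlinear regression.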
As to `Cc1nc(-c2ccccc2Cl)sc1CNC(=O)C1CC(C(=O)Nc2ccc(F)c(Cl)c2)N(C)S(=O)(=O)N1` (single isomer, unassigned) [1015-ISOMER-B, N3-(3-Chloro-4-fluoro-phenyl)-N5-[[2-(2-chlorophenyl)-4-methyl-thiazol-5-yl]methyl]-2-methyl-1,1-dioxo-1,2,6-thiadiazinane-3,5-dicarboxamide], the EC50 lay within 50 to 100 nM. As for `CN1C(C(=O)Nc2ccc(F)c(Cl)c2)CC(C(=O)NCc2ccccc2-n2ccnc2)NS1(=O)=O` (single isomer, unassigned; isomer-a) [Compound 910-ISOMER-A, N3-(3-chloro-4-fluoro-phenyl)-N5-[(2-imidaozl-1-ylphenyl)methyl]-2-methyl-1,1-dioxo-1,2,6-thiadiazinane-3,5-dicarboxamide], the EC50 was below 50 nM. Turning to `CN1C(C(=O)Nc2ccc(F)c(Cl)c2)CC(C(=O)NCc2sc(-c3ccccc3F)nc2C(F)(F)F)NS1(=O)=O` (single isomer, unassigned) [1082-ISOMER-B, N3-(3-chloro-4-fluoro-phenyl)-N5-[[2-(2-fluorophenyl)-4-(trifluoromethyl)thiazol-5-yl]methyl]-2-methyl-1,1-dioxo-1,2,6-thiadiazinane-3,5-dicarboxamide], the EC50 lay in the range of 50 to 100 nM.

`COC(=O)N1CCC(NC(=O)C2CC(C(=O)Nc3ccc(F)c(Cl)c3)N(CC(F)(F)F)S(=O)(=O)N2)CC1` (single isomer, unassigned; isomer-a) [Compound 893-ISOMER-A, methyl 4-[[5-[(3-chloro-4-fluroo-phenyl)carbamoyl]-1,1-dioxo-6-(2,2,2-triflurooethyl)-1,2,6-thiadiazinane-3-carbonyl]amino]piperidine-1-carboxylate]: the EC50 is below 50 nM. Same read-out and setting: then `Cc1cnc(CNC(=O)C2CC(C(=O)Nc3ccc(F)c(Cl)c3)N(C)S(=O)(=O)N2)s1` (single isomer, unassigned) [Compound 687-ISOMER-B, N3-(3-chloro-4-fluoro-phenyl)-2-methyl-N5-[(5-methylthiazol-2-yl)methyl]-1,1-dioxo-1,2,6-thiadiazinane-3,5-dicarboxamide], with below 50 nM; and `CN1C(C(=O)Nc2ccc(F)c(Cl)c2)CC(C(=O)NCc2cnc(-c3cccnc3)s2)NS1(=O)=O` (single isomer, unassigned; isomer-b) [Compound 911-ISOMER-B, N3-(3-chloro-4-fluoro-phenyl)-2-methyl-1,1-dioxo-N5-[[2-(3-pyridyl)thiazol-5-yl]methyl]-1,2,6-thiadiazinane-3,5-dicarboxmaide], with below 50 nM; and `CN1C(C(=O)Nc2ccc(F)c(Cl)c2)CC(C(=O)NC2CCCc3nc(-c4ccc(OCCN5CCCCC5)cc4)sc32)NS1(=O)=O` (single isomer, unassigned) [Compound 948-ISOMER-B, N3-(3-chloro-4-fluoro-phenyl)-2-methyl-1,1-dioxo-N5-[2-[4-[2-(1-piperidyl)ethoxy]phenyl]-4,5,6,7-tetrahydro-1,3-benzothiazol-7-yl]-1,2,6-thiadiazinane-3,5-dicarboxamide], with 100 to 10000 nM. The same measure, in the same setting: then `Cc1ncc(CNC(=O)C2CC(C(=O)Nc3ccc(F)c(Cl)c3)N(C)S(=O)(=O)N2)s1` (single isomer, unassigned; isomer-a) [Compound 495-ISOMER-A, N3-(3-chloro-4-fluroo-phenyl)-2-methyl-N5-[(2-methylthiazol-5-yl)methyl]-1,1-dioxo-1,2,6-thiadiazinane-3,5-dicarboxamide], with 100 to 10000 nM.

As for `CN1C(C(=O)Nc2ccc(F)c(Cl)c2)CC(C(=O)NCc2cc(-c3ccccc3Cl)no2)NS1(=O)=O` (single isomer, unassigned; isomer-a) [1025-ISOMER-A, N3-(3-chloro-4-fluro-phenyl)-N5-[[3-(2-chlorophenyl)isoxazol-5-yl]methyl]-2-methyl-1,1-dioxo-1,2,6-thiadiazinane-3,5-dicarboxamide], the EC50 is below 50 nM. As to `Cc1nc(-c2ccc(OCCN3CCCCC3)cc2)sc1CNC(=O)C1CC(C(=O)Nc2ccc(F)c(Cl)c2)N(C)S(=O)(=O)N1` (single isomer, unassigned) [1087-ISOMER-B, N3-(3-chloro-4-fluoro-phenyl)-2-methyl-N5-[[4-methyl-2-[4-[2-(1-piperidyl)ethoxy]phenyl]thiazol-5-yl]methyl]-1,1-dioxo-1,2,6-thiadiazinane-3,5-dicarboxamide], the half-maximal effective concentration (EC50) fell in the range of 50 to 100 nM. `Cc1cn(-c2ccccc2)nc1CNC(=O)C1CC(C(=O)Nc2ccc(F)c(C#N)c2)N(C)S(=O)(=O)N1` (single isomer, unassigned) [1134-ISOMER-B, N3-(3-cyano-4-fluoro-phenyl)-2-methyl-N5-[(4-methyl-1-phenyl-pyrazol-3-yl)methyl]-1,1-dioxo-1,2,6-thiadiazinane-3,5-dicarboxamide]: the EC50 was below 50 nM. On the same count and under the same terms, then `CN1C(C(=O)Nc2ccc(F)c(Cl)c2)CC(C(=O)NCc2cnc(-c3ccccc3Cl)s2)NS1(=O)=O` (single isomer, unassigned) [Compound 912-ISOMER-B, N3-(3-chloro-4-fluoro-phenyl)-N5-[[2-(2-chlorophenyl)thiazol-5-yl]methyl]-2-methyl-1,1-dioxo-1,2,6-thiadiazinane-3,5-dicarboxamide], with below 50 nM.

The experiment is the same for the next values; noted with them: Hepatitis B virus, HePAD38, 120 h, 5 days incubation, qPCR of supernatant HBV DNA vs DMSO control, read-out: viral load lowering EC50 (Activity).
With `CN1C(C(=O)Nc2ccc(F)c(Cl)c2)CC(C(=O)NC2CCN(c3ccnc(C#N)c3)CC2)NS1(=O)=O` (centres unmarked) [Compound 1089], the EC50 was below 50 nM. With `CN(C)CC(C)(C)COc1ccc(-c2ncc(CNC(=O)C3CC(C(=O)Nc4ccc(F)c(Cl)c4)N(C)S(=O)(=O)N3)s2)cc1` (centres unmarked) [Compound 943], the EC50 is below 50 nM. Same read-out and setting: then `Cc1cccc(CNC(=O)C2CC(C(=O)Nc3ccc(F)c(Cl)c3)N(C)S(=O)(=O)N2)n1` (single isomer, unassigned) [Compound 716-ISOMER-A, N3-(3-chloro-4-fluoro-phenyl)-2-methyl-N5-[(6-methyl-2-pyridyl)methyl]-1,1-dioxo-1,2,6-thiadiazinane-3,5-dicarboxamide], with below 50 nM; and `Cc1nc(-c2ccccn2)sc1CNC(=O)C1CC(C(=O)Nc2ccc(F)c(Cl)c2)N(C)S(=O)(=O)N1` (centres unmarked) [Compound 1065], with below 50 nM; and `CN1C(C(=O)Nc2ccc(F)c(Cl)c2)CC(C(=O)NCc2cnc(-c3ccc(OCCN4CCCCC4)cc3)s2)NS1(=O)=O` (single isomer, unassigned) [Compound 922-ISOMER-A, N3-(3-chloro-4-fluoro-phenyl)-2-methyl-1,1-dioxo-N5-[[2-[4-[2-(1-piperidyl)ethoxy]phenyl]thiazol-5-yl]methyl]-1,2,6-thiadiazinane-3,5-dicarboxamide], with 100 to 10000 nM.

`CN1C(C(=O)Nc2ccc(F)c(Cl)c2)CC(C(=O)NCc2cc(-c3ccc(F)cc3)nn2C)NS1(=O)=O` (centres unmarked) [Compound 1143]: the EC50 is below 50 nM. Same read-out and setting: then `CN1C(C(=O)Nc2ccc(F)c(C#N)c2)CC(C(=O)NCc2nc3ccccc3s2)NS1(=O)=O` (centres unmarked) [Compound 866], with 100 to 10000 nM. Same read-out and setting: then `CN1C(C(=O)Nc2ccc(F)c(Cl)c2)CC(C(=O)NC2CCN(c3ccnc(Cl)c3)CC2)NS1(=O)=O` (centres unmarked) [Compound 1012], with below 50 nM; and `CC(C)OC(=O)N1CCC(NC(=O)C2CC(C(=O)Nc3ccc(F)c(Cl)c3)N(C)S(=O)(=O)N2)CC1` (centres unmarked) [Compound 766], with below 50 nM; and `CCN1C(C(=O)Nc2ccc(F)c(Cl)c2)CC(C(=O)NCc2cnc(C)s2)NS1(=O)=O` (centres unmarked) [Compound 888], with 100 to 10000 nM.

Take `COc1ccccc1-c1ncc(CNC(=O)C2CC(C(=O)Nc3ccc(F)c(Cl)c3)N(C)S(=O)(=O)N2)s1` (centres unmarked) [Compound 987]: the EC50 was below 50 nM.

With `CN1C(C(=O)Nc2ccc(F)c(Cl)c2)CC(C(=O)NC2CCN(c3cc(CN4CCCCC4)ccn3)CC2)NS1(=O)=O` (single isomer, unassigned) [Compound 975-ISOMER-A, N3-(3-chloro-4-fluoro-phenyl)-2-methyl-1,1-dioxo-N5-[1-[4-(1-piperidylmethyl)-2-pyridyl]-4-piperidyl]-1,2,6-thiadiazinane-3,5-dicarboxamide], the EC50 was below 50 nM. On to `CC(C)OC1CCC(NC(=O)C2CC(C(=O)Nc3ccc(F)c(Cl)c3)N(C)S(=O)(=O)N2)CC1` (single isomer, unassigned) [Compound 862-ISOMER-A, N3-(3-chloro-4-fluoro-phenyl)-N5-(4-isopropoxycyclohexyl)-2-methyl-1,1-dioxo-1,2,6-thiadiazinane-3,5-dicarboxamide], for which the EC50 lay in the range of 100 to 10000 nM. Consider `Cc1nc(-c2ccccc2F)sc1C(NC(=O)C1CC(C(=O)Nc2ccc(F)c(Cl)c2)N(C)S(=O)(=O)N1)c1ccccc1` (centres unmarked) [Compound 1101], for which the half-maximal effective concentration (EC50) fell in the range of 50 to 100 nM.

Turning to `CN1C(C(=O)Nc2ccc(F)c(Cl)c2)CC(C(=O)NCc2cc(-c3ccc(F)cc3)n(C)n2)NS1(=O)=O` (centres unmarked) [Compound 1151], the EC50 is below 50 nM.

For the molecule `CN1C(C(=O)Nc2ccc(F)c(Cl)c2)CC(C(=O)NCc2ccccc2N2CCOCC2)NS1(=O)=O` (centres unmarked) [Compound 907], the EC50 was 50 to 100 nM. Still for that read-out and setting: then `CN1C(C(=O)Nc2ccc(F)c(Cl)c2)CC(C(=O)NC2CCC(F)(F)CC2)NS1(=O)=O` (centres unmarked) [Compound 859], with 100 to 10000 nM.

As to `Cc1nc(-c2ccc(F)cc2F)sc1CNC(=O)C1CC(C(=O)Nc2ccc(F)c(Cl)c2)N(C)S(=O)(=O)N1` (single isomer, unassigned) [1083-ISOMER-A, N3-(3-chloro-4-fluoro-phenyl)-N5-[[2-(2,4-difluorophenyl)-4-methyl-thiazol-5-yl]methyl]-2-methyl-1,1-dioxo-1,2,6-thiadiazinane-3,5-dicarboxamide], the EC50 was below 50 nM.

On to `CN1C(C(=O)Nc2ccc(F)c(Cl)c2)CC(C(=O)NCc2sc(-c3ccccc3)nc2C(F)(F)F)NS1(=O)=O` (centres unmarked) [Compound 1063], for which the EC50 was below 50 nM. Same read-out and setting: then `CN1C(C(=O)Nc2ccc(F)c(Cl)c2)CC(C(=O)NCc2ccncc2)NS1(=O)=O` (centres unmarked) [Compound 715], with 100 to 10000 nM.
